IC50 data for 20 compounds are collected here from US20240343704A1, “HALO-SUBSTITUTED AMINO PYRIDINE COMPOUNDS AS INHIBITORS OF THE HAEMATOPOIETIC PROGENITOR KINASE 1 (HPK1)” (priority 2021, published 2024).

Experiment [1] has as its target T1, Recombinant (1-346) HPK1 (h) (Homo sapiens, UniProt Q92918).
T1 construct: Recombinant (1-346) HPK1 (h) is incubated with 8 mM MOPS pH 7.0
T1 sequence (Q92918 1-346): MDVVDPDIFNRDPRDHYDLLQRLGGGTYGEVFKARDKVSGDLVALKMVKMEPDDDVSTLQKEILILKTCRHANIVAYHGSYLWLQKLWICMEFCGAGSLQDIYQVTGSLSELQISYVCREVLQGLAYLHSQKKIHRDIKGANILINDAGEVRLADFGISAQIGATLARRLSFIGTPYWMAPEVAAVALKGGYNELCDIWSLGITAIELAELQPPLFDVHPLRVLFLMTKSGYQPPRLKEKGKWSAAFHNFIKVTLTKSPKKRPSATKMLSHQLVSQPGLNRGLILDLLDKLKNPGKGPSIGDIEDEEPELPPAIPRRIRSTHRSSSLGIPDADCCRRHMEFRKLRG
Put plainly: HPK1 Human STE Kinase Enzymatic Radiometric Assay. The experiment is classed as biochemical. On the procedure:
A stock solution of 10 mM of test compound is prepared in DMSO. The compound plate was prepared by 3-fold and 9-point serial dilutions. […] The reaction is initiated by The addition of the Mg/ATP mix. After incubation for 40 minutes at RT, the reaction is stopped by the addition of phosphoric acid to a concentration of 0.5%.

The next experiment has as its target Lck (h) (Homo sapiens, UniProt P06239). The experiment can be described thus: Lck Human  Kinase Enzymatic Radiometric Assay. The experiment is classed as biochemical. A digest of the protocol:
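Substrate 33P-incorporation measured by scintillation counting after spotting on P30 filtermat and phosphoric acid washes. Human Lck reacted 40 min at RT in 50 mM Tris pH 7.5 with 10 mM MgAcetate, [gamma-33P]-ATP, 250 uM Cdc2 peptide, 0.1 mM EGTA and 0.1 mM Na3VO4.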

Like-named read-outs stand apart in the source and are kept apart here.

Lck (h), sequence (P06239 whole entry): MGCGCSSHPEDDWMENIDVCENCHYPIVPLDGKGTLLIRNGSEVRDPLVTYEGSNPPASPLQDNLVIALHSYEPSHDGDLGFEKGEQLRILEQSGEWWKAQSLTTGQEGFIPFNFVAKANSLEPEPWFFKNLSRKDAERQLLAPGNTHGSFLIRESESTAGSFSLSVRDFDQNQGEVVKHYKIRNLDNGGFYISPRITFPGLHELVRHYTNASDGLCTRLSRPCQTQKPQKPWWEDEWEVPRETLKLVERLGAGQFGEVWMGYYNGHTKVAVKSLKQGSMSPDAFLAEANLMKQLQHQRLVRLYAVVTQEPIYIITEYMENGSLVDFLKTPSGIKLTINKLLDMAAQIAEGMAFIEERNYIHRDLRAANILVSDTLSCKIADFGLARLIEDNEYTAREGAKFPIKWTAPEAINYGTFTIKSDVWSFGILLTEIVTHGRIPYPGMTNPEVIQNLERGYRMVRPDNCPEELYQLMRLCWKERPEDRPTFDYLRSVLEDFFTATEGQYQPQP

Usually IC50 stands for the midpoint of a concentration-inhibition curve. On to `CS(=O)(=O)N1CCC(Oc2ccc(-c3cc(-c4ccc5c(c4)CCNC5=O)c(N)nc3F)cc2)CC1` [I-54, 6-(2-amino-6-fluoro-5-(4-((1-(methylsulfonyl)piperidin-4-yl)oxy)phenyl)pyridin-3-yl)-3,4-dihydroisoquinolin-1(2H)-one], for which the IC50 in experiment [1] (read-out: HPK1 IC50 nM Range*) is 0.1 to 10 nM; on Lck (h) (read-out: Lck IC50 nM Range*), above 1000 nM.
Regarding `CCN1CCN(c2ccc(-c3cc(-c4ccc5c(c4)CCNC5=O)c(N)nc3F)cc2)CC1` [I-41, 6-(2-amino-5-(4-(4-ethylpiperazin-1-yl)phenyl)-6-fluoropyridin-3-yl)-3,4-dihydroisoquinolin-1(2H)-one], the IC50 in experiment [1] (read-out: HPK1 IC50 nM Range*) is 0.1 to 10 nM; on Lck (h) (read-out: Lck IC50 nM Range*), above 1000 nM.
With `CN1CCN(c2ccc(-c3cnc(N)c(-c4ccc5c(c4)CCNC5=O)c3F)cc2)CC1` [I-1, 6-(2-amino-4-fluoro-5-(4-(4-methylpiperazin-1-yl)phenyl)pyridin-3-yl)-3,4-dihydroisoquinolin-1(2H)-one], the IC50 fell in the range of 11 to 100 nM in experiment [1] (read-out: HPK1 IC50 nM Range*) and 101 to 1000 nM on Lck (h) (read-out: Lck IC50 nM Range*).
Taken in the same sequence, the figures for `CC(C)S(=O)(=O)c1ccc(-c2cc(-c3ccc4c(c3)CCNC4=O)c(N)nc2F)cc1` [I-15, 6-(2-amino-6-fluoro-5-(4-(isopropylsulfonyl)phenyl)pyridin-3-yl)-3,4-dihydroisoquinolin-1(2H)-one] were 0.1 to 10 nM and above 1000 nM.
The like results for `Nc1nc(F)c(-c2ccc(C3=CCNC3)cc2)cc1-c1ccc2c(c1)CCNC2=O` [I-109, 6-(2-amino-5-(4-(2,5-dihydro-1H-pyrrol-3-yl)phenyl)-6-fluoropyridin-3-yl)-3,4-dihydroisoquinolin-1(2H)-one 2,2,2-trifluoroacetate] were, in that order, 0.1 to 10 nM and above 1000 nM.
Turning to `CC(C)N1CCC2(CCc3cc(-c4cc(-c5ccc6c(c5)CCNC6=O)c(N)nc4F)ccc3O2)CC1` [I-223, 6-(2-amino-6-fluoro-5-(1′-isopropylspiro[chromane-2,4′-piperidin]-6-yl)pyridin-3-yl)-3,4-dihydroisoquinolin-1(2H)-one], the IC50 was 0.1 to 10 nM in experiment [1] (read-out: HPK1 IC50 nM Range*) and above 1000 nM on Lck (h) (read-out: Lck IC50 nM Range*).
The like results for `CCN1CC=C(c2ccc(-c3cc(-c4cc5c(cc4F)C(=O)NCC5)c(N)nc3F)cc2)CC1` [I-296, 6-(2-amino-5-(4-(1-ethyl-1,2,3,6-tetrahydropyridin-4-yl)phenyl)-6-fluoropyridin-3-yl)-7-fluoro-3,4-dihydroisoquinolin-1(2H)-one] were, in that order, 0.1 to 10 nM and above 1000 nM.
For `Nc1nc(F)c(-c2ccc(N3CCN(CCC4CC4)CC3)cc2)cc1-c1cc(F)c2c(c1)CCNC2=O` [I-384, 6-(2-amino-5-(4-(4-(2-cyclopropylethyl)piperazin-1-yl)phenyl)-6-fluoropyridin-3-yl)-8-fluoro-3,4-dihydroisoquinolin-1(2H)-one], the half-maximal inhibitory concentration (IC50) fell in the range of 0.1 to 10 nM in experiment [1] (read-out: HPK1 IC50 nM Range*) and 101 to 1000 nM at Lck (h) (read-out: Lck IC50 nM Range*).
The like results for `CCN1CCN(c2ccc(-c3cc(-c4cc5c(cc4F)C(=O)NCC5)c(N)nc3F)cc2)CC1` [I-211, 6-(2-amino-5-(4-(4-ethylpiperazin-1-yl)phenyl)-6-fluoropyridin-3-yl)-7-fluoro-3,4-dihydroisoquinolin-1(2H)-one] were, in that order, 0.1 to 10 nM and above 1000 nM.
Taken in the same sequence, the figures for `COCCN1CCC(OC)(c2ccc(-c3cc(-c4ccc5c(c4)CCNC5=O)c(N)nc3F)cc2)CC1` [I-208, 6-(2-amino-6-fluoro-5-(4-(4-methoxy-1-(2-methoxyethyl)piperidin-4-yl)phenyl)pyridin-3-yl)-3,4-dihydroisoquinolin-1(2H)-one] were 0.1 to 10 nM and above 1000 nM.
The like results for `Nc1nc(F)c(-c2ccc(OC3CCN(CC4CC4)CC3)cc2)cc1-c1cc2c(cc1F)C(=O)NCC2` [I-324, 6-(2-amino-5-(4-((1-(cyclopropylmethyl)piperidin-4-yl)oxy)phenyl)-6-fluoropyridin-3-yl)-7-fluoro-3,4-dihydroisoquinolin-1(2H)-one] were, in that order, 0.1 to 10 nM and above 1000 nM.
In the case of `CCS(=N)(=O)c1ccc(-c2cc(-c3ccc4c(c3)CCNC4=O)c(N)nc2F)cc1` (stereo not shown) [I-85, 6-(2-amino-5-(4-(ethylsulfonimidoyl)phenyl)-6-fluoropyridin-3-yl)-3,4-dihydroisoquinolin-1(2H)-one], the IC50 was 11 to 100 nM in experiment [1] (read-out: HPK1 IC50 nM Range*) and above 1000 nM at Lck (h) (read-out: Lck IC50 nM Range*).
Consider `Nc1nc(F)c(-c2ccc(OC3CCN(C4COC4)CC3)cc2)cc1-c1cc2c(cc1F)C(=O)NCC2` [I-325, 6-(2-amino-6-fluoro-5-(4-((1-(oxetan-3-yl)piperidin-4-yl)oxy)phenyl)pyridin-3-yl)-7-fluoro-3,4-dihydroisoquinolin-1(2H)-one], for which the IC50 in experiment [1] (read-out: HPK1 IC50 nM Range*) is 11 to 100 nM; at Lck (h) (read-out: Lck IC50 nM Range*), above 1000 nM.
The like results for `Nc1nc(F)c(-c2ccc([C@]34CNC[C@H]3C4)cc2)cc1-c1ccc2c(c1)CCNC2=O` [I-135, 6-(5-(4-((1R,5S)-3-azabicyclo[3.1.0]hexan-1-yl)phenyl)-2-amino-6-fluoropyridin-3-yl)-3,4-dihydroisoquinolin-1(2H)-one] were, in that order, 0.1 to 10 nM and above 1000 nM.
As to `CC(=O)N1CC(F)(c2ccc(-c3cc(-c4ccc5c(c4)CCNC5=O)c(N)nc3F)cc2)C1` [I-342, 6-(5-(4-(1-acetyl-3-fluoroazetidin-3-yl)phenyl)-2-amino-6-fluoropyridin-3-yl)-3,4-dihydroisoquinolin-1(2H)-one], the IC50 is 0.1 to 10 nM in experiment [1] (read-out: HPK1 IC50 nM Range*) and above 1000 nM on Lck (h) (read-out: Lck IC50 nM Range*).
In the case of `CC(C)(C)OC(=O)N1CCC2(CC1)OCc1cc(-c3cc(-c4ccc5c(c4)CCNC5=O)c(N)nc3F)ccc1O2` [I-173, tert-butyl 6-(6-amino-2-fluoro-5-(1-oxo-1,2,3,4-tetrahydroisoquinolin-6-yl)pyridin-3-yl)-4H-spiro[benzo[d][1,3]dioxine-2,4′-piperidine]-1′-carboxylate], the IC50 in experiment [1] was 11 to 100 nM; on Lck (h), above 1000 nM.
With `CC(C)N1CCC2(CC1)CC(=O)c1cc(-c3cc(-c4ccc5c(c4)CCNC5=O)c(N)nc3F)ccc1O2` [I-222, 6-(6-amino-2-fluoro-5-(1-oxo-1,2,3,4-tetrahydroisoquinolin-6-yl)pyridin-3-yl)-1′-isopropylspiro[chromane-2,4′-piperidin]-4-one], the figures for the IC50 (in experiment [1] (read-out: HPK1 IC50 nM Range*); at Lck (h) (read-out: Lck IC50 nM Range*)) were 0.1 to 10 nM and above 1000 nM, respectively.
In the case of `Nc1nc(F)c(-c2ccc3c(c2)CCNC3)cc1-c1ccc2c(c1)CCNC2=O` [I-255, 6-(2-amino-6-fluoro-5-(1,2,3,4-tetrahydroisoquinolin-6-yl)pyridin-3-yl)-3,4-dihydroisoquinolin-1(2H)-one 2,2,2-trifluoroacetate], the IC50 is 0.1 to 10 nM in experiment [1] (read-out: HPK1 IC50 nM Range*) and above 1000 nM at Lck (h) (read-out: Lck IC50 nM Range*).
The like results for `CCN1C[C@H]2C[C@@]2(c2ccc(-c3cc(-c4ccc5c(c4)CCNC5=O)c(N)nc3F)cc2)C1` [I-71, 6-(2-amino-5-(4-((1R,5S)-3-ethyl-3-azabicyclo[3.1.0]hexan-1-yl)phenyl)-6-fluoropyridin-3-yl)-3,4-dihydroisoquinolin-1(2H)-one] were, in that order, 0.1 to 10 nM and above 1000 nM.
Taken in the same sequence, the figures for `CCN(CC)S(=O)(=O)c1ccc(-c2cc(-c3ccc4c(c3)CCNC4=O)c(N)nc2F)cc1` [I-65, 4-(6-amino-2-fluoro-5-(1-oxo-1,2,3,4-tetrahydroisoquinolin-6-yl)pyridin-3-yl)-N,N-diethylbenzenesulfonamide] were 11 to 100 nM and above 1000 nM.
